From patent publication US5010076A, “1,7-fused 1H-indole-2-carboxylic acid-N-(1,4-benzodiazepin-3-yl)amides” (Kali-Chemie Pharma GmbH, priority 1989, dated 1991)
No end group written: not given here.

Legend:
[1] = target: T1, peripheral CCK receptors (pancreas) (Rattus norvegicus, UniProt P30551); test: peripheral CCK receptor binding affinity on rat pancreas homogenate (inhibition of 3[H]-CCK-8 binding); parameters: species or system rat (male Wistar); conditions: 0.3 nM 3[H]-CCK-8, 90 min, 25° C., pH 7.4, calculated from IC50 by Cheng-Prusoff; for Ki: read-out: In vitro binding to peripheral CCK receptors (pancreas) pKi values (converted)
T1 construct: Whole pancreas glands from male Wistar rats with a body weight of 150-300 g; from tissue; host or cells: whole pancreas glands of male Wistar rats, washed homogenate
T1 sequence (P30551 1-444): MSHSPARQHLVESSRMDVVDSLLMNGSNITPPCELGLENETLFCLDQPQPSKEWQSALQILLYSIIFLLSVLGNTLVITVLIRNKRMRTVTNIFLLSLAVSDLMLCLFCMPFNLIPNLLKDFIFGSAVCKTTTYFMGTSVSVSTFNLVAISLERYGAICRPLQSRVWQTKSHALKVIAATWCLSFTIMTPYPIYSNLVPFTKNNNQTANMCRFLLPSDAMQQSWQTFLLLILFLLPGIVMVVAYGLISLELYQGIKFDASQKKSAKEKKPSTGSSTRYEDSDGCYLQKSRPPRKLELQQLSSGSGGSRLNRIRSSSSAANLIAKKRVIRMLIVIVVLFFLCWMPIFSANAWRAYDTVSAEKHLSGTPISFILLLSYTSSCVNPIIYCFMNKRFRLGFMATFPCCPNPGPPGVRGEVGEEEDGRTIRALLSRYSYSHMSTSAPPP
Method: The affinity of the compounds of formula I for peripheral CCK receptors was measured in vitro on rat pancreas homogenate. The inhibition of the binding of the physiologically relevant octopeptide CCK-8 to peripheral CCK receptors by the test substances was determined.
The receptor binding studies were carried out by a modification of the method of van Dijk et al. (J. Neuroscience 4 (1984), 1021-1033), using soya bean trypsin inhibitor (=SBTI) as protease inhibitor. ^3 [H]-CCK-8, code TRK 775, from Amersham Int., having a specific activity of 60-90 Ci/mmol, was used as tritium-labelled CCK-8.
Whole pancreas glands from male Wistar rats with a body weight of 150-300 g, which had been sacrificed by decapitation, were freed of fatty tissue and homogenized for 15 seconds in a 50-fold volume of an ice-cold test buffer solution (10 mmol 2-[4-(2-hydroxyethyl)-piperazin-1-yl]-ethanesulfonic acid (=HEPES), 130 mmol sodium chloride, 5 mmol magnesium chloride, 0.02% bacitracins, 0.01% SBTI, pH 7.4) with a Kinematica Polytron type homogenizer. The homogenates were then centrifuged at 48,000 g for 10 minutes. This washing method was repeated. After the last centrifugation, the residue which was obtained each time in the form of a pellet was suspended in a 550-fold volume of the test buffer solution and immediately used for the measurement.
For the binding test, 500 μl of the tissue homogenate were incubated with 50 μl of test buffer solution or 50 μl of a solution of the compound to be investigated and with 50 μl of a ^3 [H]-CCK-8 solution (final concentration 0.3 nM). The non-specific binding was assumed to be 0.1 μmol CCK-8. The incubation lasted 90 minutes at 25° C. All the compounds were measured 3 times at each of several concentrations.
Aqueous solutions were employed as test substance solutions and were prepared by appropriate dilution of 60×10^-4 molar aqueous stock solutions. Test substances which are sparingly soluble in water were first dissolved in 96% ethanol, and this solution was diluted with sufficient water for the ethanol concentration not to exceed 1.6% by volume in the solution to be tested.
Bound and free ^3 [H]-CCK-8 were separated by filtration through glass fiber filters. The filters were washed twice with 3 ml of HEPES solution each time and then placed in the scintillation solution (SAVE scintillation solution from Packard) in the dark overnight and counted in a Packard TriCarb 1500™liquid scintillation counter. The IC50 of the respective test substance was determined to be that concentration which caused a 50% inhibition of the specific binding of tritiated CCK-8 to the receptors. From this, the corresponding pKi value was calculated using the Cheng-Prusoff equation. […]

[2] = system: CCK-induced disturbance of stomach emptying; test: effect of test substances on CCK-induced disturbances of emptying of the stomach (charcoal transport into duodenum); assay type: in vivo, mouse (female NMRI)
Method: Doses of CCK lead to substantial blockade of the transpyloric transport of chyme from the stomach into the duodenum. The ability of the test substances to eliminate this blocking effect of CCK was investigated.
Female NMRI mice having body weights of 20-25 g were used in groups of ten animals each. […] A control group received only the Tylose® solution or the solution containing the solubilizer polyethylene glycol in each case. 60 minutes later the animals were given a subcutaneous injection of 80 Ig/kg CCK-8. After a further 5 minutes the animals were each orally administered 0.3 ml of a charcoal suspension (5% charcoal in 2% strength Tylose solution). The mice were sacrificed 5 minutes later and subsequently dissected. They were examined to find whether charcoal suspension had advanced into the duodenum.
The percentage of animals in which the CCK effect was eliminated and charcoal suspension was found in the duodenum after administration of the test substances was determined.

[3] = system: CCK-induced gallbladder emptying; test: inhibitory effect of test substances on CCK-induced gallbladder emptying (gallbladder weight); assay type: in vivo, mouse (female NMRI); conditions: for % Inhibition of CCK-induced Gallbladder Emptying: CCK-8 i.p. 60 min later
Method: CCK causes a contraction of the muscles of the gallbladder and thus an emptying of the gallbladder. […] Intraperitoneal doses of 0.1 μg/kg CCK-8 may result in the weight of the gallbladders decreasing to about 1/10 of the original weight.
Female NMRI mice having a body weights of 20-25 g were used in groups of 10 animals each. After withdrawal of feed for 24 hours (drinking water ad libitum) the animals received an oral dose of the test substance suspended in a volume of 10 ml/kg of body weight of a 1% strength Tylose® solution (=methylcellulose) or in a volume of 10 ml/kg of body weight of a solubilizer solution which contained 5% glycerol, 87% polyethylene glycol 400, and 8% water. Two control groups each received only the Tylose® solution or the solution containing the solubilizer polyethylene glycol. One of the control groups and all the animals treated with test substance received 0.1 Ig/kg CCK-8 injected i.p. 60 minutes later.
The mice were sacrificed 5 minutes after the CCK-8 administration, and the gallbladders were excised and weighed.
The following Table C lists the percentage inhibition of the CCK-8 effect on gallbladder weights caused by the test substances.

[4] = determination of the minimum toxic dose; assay type: in vivo, mouse (male); conditions: mouse
Method: Male mice weighing 20-25 g were given maximum oral doses of 300 mg/kg of the test substance. The animals were observed carefully for three hours for symptoms of toxicity. In addition, all symptoms and deaths were recorded for a period of 24 hours after administration. Concomitant symptoms were likewise observed and recorded. If death or serious symptoms of toxicity were observed, further mice were given increasingly lower doses. The lowest dose which caused death or serious symptoms of toxicity is indicated in the following Table A as the minimum toxic dose.

[5] = dose 10 μmol/kg mouse oral, CCK-8 s.c. 60 min later
[6] = dose 0.1 μmol/kg mouse oral, CCK-8 s.c. 60 min later
[7] = dose 1.0 μmol/kg mouse oral, CCK-8 s.c. 60 min later
[8] = oral, lowest dose causing death or serious symptoms of toxicity, max 300 mg/kg, 24 h
[9] = dose 1.0* μmol/kg mouse oral, * = administered in solution containing solubilizer (PEG 400)

## COc1ccc2c(c1)N(C)C(=O)C(NC(=O)c1cc3cccc4c3n1CCC4)N=C2c1ccccc1 (single isomer, unassigned; (+)) [Example 2b, (+)-3-[(4H-pyrrolo[3,2,1-ij]-5,6-dihydroquinoline-2-carbonyl)-amino]-8-methoxy-1-methyl-2-oxo-5-phenyl-1H-2,3-dihydro-1,4-benzodiazepine]
[1]
  Ki: 19.5 nM
[2]; [5]
  % of Animals in which the CCK Effect was Eliminated: 70%
[3]; dose 46 μmol/kg mouse oral
  % Inhibition of CCK-induced Gallbladder Emptying: 8.3%

## COc1ccc2c(c1)N(C)C(=O)C(NC(=O)c1cc3cccc4c3n1CCC4)N=C2c1ccccc1 (single isomer, unassigned; (-)) [Example 2a, (-)-3-[(4H-pyrrolo[3,2,1-ij]-5,6-dihydroquinoline-2-carbonyl)-amino]-8-methoxy-1-methyl-2-oxo-5-phenyl-1H-2,3-dihydro-1,4-benzodiazepine]
[1]
  Ki: 0.257 nM
[2]; [6]
  % of Animals in which the CCK Effect was Eliminated: 100%
[3]; dose 0.46 μmol/kg mouse oral
  % Inhibition of CCK-induced Gallbladder Emptying: 16%

## CN1C(=O)C(NC(=O)c2cc3cccc4c3n2CCC4)N=C(C2CCCCC2)c2ccccc21 (stereo not shown) [Example 4, 3-[(4H-pyrrolo[3,2,1-ij]-5,6-dihydroquinoline-2-carbonyl)-amino]-1-methyl-2-oxo-5-cyclohexyl-1H-2,3-dihydro-1,4-benzodiazepine]
[1]
  Ki: 2.51 nM
[4]; in vivo, 1440 min
  Minimum toxic dose: > 300 mg/kg
[2]; [7]
  % of Animals in which the CCK Effect was Eliminated: 45%

## CN1C(=O)C(NC(=O)c2cc3cc(F)cc4c3n2CCC4)N=C(c2ccccc2)c2ccccc21 (stereo not shown) [Example 5, 3-[(8-fluoro-4H-pyrrolo[3,2,1-ij]-5,6-dihydroquinoline-2-carbonyl)-amino]-2-oxo-1-methyl-5-phenyl-1H-2,3-dihydro-1,4-benzodiazepine]
[1]
  Ki: 1.45 nM
[4]; [8]
  Minimum toxic dose: > 300 mg/kg
[2]; [5]
  % of Animals in which the CCK Effect was Eliminated: 75%

## Cc1ccc2c(c1)C(c1cccs1)=NC(NC(=O)c1cc3cccc4c3n1CCC4)C(=O)N2C (stereo not shown) [Example 8, 3-[(4H-Pyrrolo[3,2,1-ij]-5,6-dihydroquinoline-2-carbonyl)-amino]-1,7-dimethyl-2-oxo-5-(2-thienyl)-1H-2,3-dihydro-1,4-benzodiazepine]
[1]
  Ki: 9.12 nM

## Cc1ccc2c(c1)C(c1ccccc1F)=NC(NC(=O)c1cc3cccc4c3n1CCC4)C(=O)N2C (stereo not shown) [Example 10]
[1]
  In vitro binding to peripheral CCK receptors (pancreas) pKi values: 8.75
[4]; [8]
  Minimum toxic dose: 300 mg/kg
[2]; [6]
  % of Animals in which the CCK Effect was Eliminated: 40%

## CN1C(=O)C(NC(=O)c2cc3cccc4c3n2CCC4)N=C(c2ccc(F)cc2F)c2ccccc21 (stereo not shown) [Example 11]
[1]
  Ki: 2.4 nM
[4]; [8]
  Minimum toxic dose: 300 mg/kg

## COc1ccc2c(c1)N(C)C(=O)C(NC(=O)c1cc3cccc4c3n1CCC4)N=C2c1c(F)cccc1F (stereo not shown) [Example 13]
[1]
  Ki: 1 nM
[4]; [8]
  Minimum toxic dose: > 300 mg/kg
[2]; [5]
  % of Animals in which the CCK Effect was Eliminated: 83%
[2]; [9]
  % of Animals in which the CCK Effect was Eliminated: 100%

## COc1ccc2c(c1)N(C)C(=O)C(NC(=O)c1cc3cccc4c3n1CCC4)N=C2c1c(F)cccc1OCCC(C)C (stereo not shown) [Example 17]
[1]
  Ki: 10 nM
[2]; [9]
  % of Animals in which the CCK Effect was Eliminated: 50%

## Cc1ccc2c(c1)C(c1ccccc1)=NC(NC(=O)c1cc3cccc4c3n1CCC4)C(=O)N2C (stereo not shown) [Example 18]
[1]
  Ki: 1.17 nM
[4]; [8]
  Minimum toxic dose: > 300 mg/kg

## CN1C(=O)C(NC(=O)c2cc3cccc4c3n2CCC4)N=C(c2ccccc2F)c2ccccc21 (stereo not shown) [Example 22]
[1]
  Ki: 0.912 nM
[4]; [8]
  Minimum toxic dose: > 300 mg/kg

## O=C(NC1N=C(c2ccccc2)c2ccccc2N(CC2CC2)C1=O)c1cc2cccc3c2n1CCC3 (stereo not shown) [Example 23]
[1]
  Ki: 10 nM
[4]; [8]
  Minimum toxic dose: > 300 mg/kg

## CC(C)N1C(=O)C(NC(=O)c2cc3cccc4c3n2CCC4)N=C(c2ccccc2)c2ccccc21 (stereo not shown) [Example 25]
[1]
  Ki: 24 nM
[4]; [8]
  Minimum toxic dose: > 300 mg/kg

## CN1C(=O)C(NC(=O)c2cc3cc(F)cc4c3n2CCC4)N=C(c2ccccc2)c2cc(Cl)ccc21 (stereo not shown) [Example 26]
[1]
  Ki: 6.17 nM

## Cc1ccc2c(c1)C(c1ccc(Cl)c(Cl)c1)=NC(NC(=O)c1cc3cccc4c3n1CCC4)C(=O)N2C (stereo not shown) [Example 27]
[2]; [7]
  % of Animals in which the CCK Effect was Eliminated: 40%

## Cc1ccc(C2=NC(NC(=O)c3cc4cccc5c4n3CCC5)C(=O)N(C)c3ccccc32)cc1 (stereo not shown) [Example 30]
[1]
  Ki: 2.34 nM
[4]; [8]
  Minimum toxic dose: 300 mg/kg

## CN1C(=O)C(NC(=O)c2cc3cccc4c3n2CCO4)N=C(c2ccccc2)c2ccccc21 (stereo not shown) [Example 37]
[1]
  Ki: 0.646 nM

## CN1C(=O)C(NC(=O)c2cc3cccc4c3n2CCS4)N=C(c2ccccc2)c2ccccc21 (stereo not shown) [Example 38]
[1]
  Ki: 0.977 nM

## CCK-8: the octapeptide CCK-8 is the smallest unit with the complete spectrum of CCK effects (DYMGWMDF; ends and bridges not checked; UniProt P06307 96-103, looked up) [reference compound]
[2]; control animals which received a dose of CCK (80 Ig/kg CCK-8 subcutaneous), no test substance
  animals with traces of charcoal suspension in the duodenum: not more than 5%
[3]; intraperitoneal 0.1 μg/kg CCK-8
  weight of the gallbladders decreasing to fraction of the original weight: about 1/10
